# Data taken from patent US4489091A, “Antilipemic and anti-inflammatory compositions containing sulfonate derivatives” (Taiho Pharmaceutical Company Limited, priority 1980, dated 1984).
# What was measured:
# triglycerides = assay: Antilipemic effect: percent triglycerides inhibition in plasma of rats given an olive oil-cholesterol mixture; format: in vivo, male Wistar rats; settings: plasma 2 hours after dosing, Wistar rat; for inhibition in vivo at 100 mg/kg: oral 100 mg/kg, read-out: Anti-lipemic effect, TG (percent triglycerides inhibition)
# Summary of the method: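 Male Wistar rats, seven weeks old, 200 to 220 g, 5 per group, dosed orally at 100 or 200 mg/kg in olive oil-cholesterol mixture (15% cholesterol) at 10 ml/kg. Plasma triglycerides measured at 2 hours, total cholesterol at 8 hours, by enzymatic kits; percent inhibition calculated relative to vehicle control and untreated normal groups.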
# cholesterol = assay: Antilipemic effect: percent total cholesterol inhibition in plasma of rats given an olive oil-cholesterol mixture; format: in vivo, male Wistar rats; settings: plasma 8 hours after dosing, Wistar rat; for inhibition in vivo at 100 mg/kg: oral 100 mg/kg, read-out: Anti-lipemic effect, CS (percent cholesterol inhibition)
# Description: The above compounds of this invention are tested by the following methods for antilipemic effect and acute toxicity. In the column of antilipemic effect in the table, the asterisked values indicate the effect achieved by orally giving 200 mg/kg of the compounds concerned, and the unmarked values, the effect attained by orally giving 100 mg/kg. In the same column, "TG" stands for percent triglycerides inhibition and "CS" percent cholesterol inhibition.
# Seven-week-old male Wistar rats weighing 200 to 220 g are used, 5 rats in each group.
# Each compound of the invention (100 mg or 200 mg) is dissolved in 10 ml of an olive oil-cholesterol mixture (containing 15% of cholesterol). The mixture containing the compound is orally given to the rat with a probe at a dose of 10 ml/kg. Two or 8 hours thereafter, 6 ml of whole blood is withdrawn from the descending aorta of the rat under ether anesthesia with a syringe containing heparin. The blood is centrifuged at 5° C. and 3000 r.p.m. to obtain the plasma. The plasma collected after the lapse of 2 hours is used for determining the triglycerides content, and the plasma obtained 8 hours later for determining the total cholesterol content, using a triglycerides measuring kit (trade mark "Triglycerides-B Test Wako," product of Wako Junyaku Co., Ltd., Japan) and a total cholesterol measuring kit (trade mark "Cholesterol Test Wako," product of the same), respectively. The olive oil-cholesterol mixture containing no compound is similarly given to a control group, while no treatment is conducted for a normal group. The triglycerides and total cholesterol contents in the plasma are also determined for these groups in the same manner as is the case with the test groups.
# The present hyperlipidemia inhibition achieved by the present compound is given by [formula] in which A is the triglycerides (cholesterol) content of the control group, B is the triglycerides (cholesterol) content of the normal group, and C is the triglycerides (cholesterol) content of the group to which the present compound is given.
# Acute toxicity = settings: rat, in vivo, po
# Description: Six-week-old male Wistar rats weighing 180 to 200 g are used, 5 rats in each group. Each compound of the invention is suspended in a 30% aqueous solution of polyethylene glycol 6000 and orally given to the rat at the dosage shown in Table 2. The animals are checked for poisoning, body weight and survival to determine the LD50 value.
# esterase = assay: Esterase inhibiting activity; format: biochemical; settings: rat liver microsome esterase, methyl butyrate substrate, pH 8.0, 37° C., 60 minutes; read-out: IC50 for esterases
# Description: A 10 micromole quantity of methyl butyrate in a 50% ethanol solution is added as a substrate to a specified amount of buffer solution containing 0.1 mole of trishydrochloric acid (pH 8.0). To the mixture is further added a 50% ethanol solution of the compound of the invention, immediately followed by addition of an esterase solution prepared from a purified microsome fraction of the liver of a rat (adjusted to hydrolyze 9 micromoles of methyl butyrate at 37° C. in one hour) as an enzyme solution. The mixture is reacted at 37° C. for 60 minutes.
# After the reaction, alkaline hydroxylamine is added to the mixture to form a hydroxamic acid derivative of methyl butyrate, and a ferric salt is added to the derivative. The resulting red color is colorimetrically determined (at a wavelength of 540 nm) to determine the amount of remaining methyl butyrate. The esterase inhibiting ratios of the present compound at least at three concentrations are plotted as ordinate, and the logarithms of the concentrations as abscissa to obtain a line, which gives the 50% inhibition concentration (IC50).
SMILES,inhibition in vivo at 100 mg/kg (triglycerides),inhibition in vivo at 100 mg/kg (cholesterol),LD50 (Acute toxicity),"inhibition in vivo at 200 mg/kg (triglycerides; oral 200 mg/kg (asterisked values), read-out: Anti-lipemic effect, TG (percent triglycerides inhibition), asterisked)","Anti-lipemic effect, CS (percent cholesterol inhibition), asterisked (cholesterol; oral 200 mg/kg (asterisked values))",IC50 (esterase)
CCCCCCC(=O)COS(=O)(=O)c1c(C)cc(C)c(C)c1C [Compound 97],55%,47%,> 3000 mg/kg,–,–,–
CCC(C)C(=O)COS(=O)(=O)c1c(C)cc(C)c(C)c1C (centres unmarked) [Compound 99],72%,78%,> 3000 mg/kg,–,–,–
CCCCC(CC)C(=O)COS(=O)(=O)c1c(C)cc(C)c(C)c1C (centres unmarked) [Compound 100],–,–,> 4000 mg/kg,66%,42%,–
CCCC(=O)COS(=O)(=O)c1ccc(C)cc1C [Compound 112],80%,62%,> 2000 mg/kg,–,–,–
CCCC(=O)COS(=O)(=O)c1c(CC)cc(CC)cc1CC [Compound 114],87%,76%,> 3000 mg/kg,–,–,–
CCCC(=O)COS(=O)(=O)c1ccc(C)c(C)c1C [Compound 117],70%,71%,> 2000 mg/kg,–,–,–
CCC(CC)C(=O)COS(=O)(=O)c1ccc(C)cc1 [Compound 121],63%,66%,> 3000 mg/kg,–,–,–
CCCC(C)C(=O)COS(=O)(=O)c1ccc(C)cc1 (centres unmarked) [Compound 122],65%,51%,> 3000 mg/kg,–,–,–
CCCC(CC)C(=O)COS(=O)(=O)c1ccc(C)cc1 (centres unmarked) [Compound 123],67%,60%,> 3000 mg/kg,–,–,–
CCCC(CCC)C(=O)COS(=O)(=O)c1ccc(C)cc1 [Compound 124],62%,42%,> 3000 mg/kg,–,–,–
CCC(C)CC(=O)COS(=O)(=O)c1ccc(C)cc1 (centres unmarked) [Compound 125],68%,44%,> 3000 mg/kg,–,–,–
Cc1ccc(S(=O)(=O)OCC(=O)CCC(C)C)cc1 [Compound 126],61%,47%,> 3000 mg/kg,–,–,–
CCCCC(C)C(=O)COS(=O)(=O)c1ccc(C)cc1 (centres unmarked) [Compound 127],92%,67%,> 3000 mg/kg,–,–,–
CCCCC(CCC)C(=O)COS(=O)(=O)c1ccc(C)cc1 (centres unmarked) [Compound 128],62%,51%,> 3000 mg/kg,–,–,–
CCOc1ccc(S(=O)(=O)OCC(=O)C(CC)CC)cc1 [Compound 131],110%,97%,> 2000 mg/kg,–,–,–
CCOc1ccc(S(=O)(=O)OCC(=O)CC(C)C)cc1 [Compound 132],87%,90%,> 2000 mg/kg,–,–,–
CCCC(C)C(=O)COS(=O)(=O)c1ccc(OCC)cc1 (centres unmarked) [Compound 133],111%,91%,> 4500 mg/kg,–,–,–
CCOc1ccc(S(=O)(=O)OCC(=O)CC(C)CC)cc1 (centres unmarked) [Compound 136],80%,99%,> 4500 mg/kg,–,–,–

SMILES,inhibition in vivo at 100 mg/kg (triglycerides),inhibition in vivo at 100 mg/kg (cholesterol),LD50 (Acute toxicity),"inhibition in vivo at 200 mg/kg (triglycerides; oral 200 mg/kg (asterisked values), read-out: Anti-lipemic effect, TG (percent triglycerides inhibition), asterisked)","Anti-lipemic effect, CS (percent cholesterol inhibition), asterisked (cholesterol; oral 200 mg/kg (asterisked values))",IC50 (esterase)
CCCCC(C)C(=O)COS(=O)(=O)c1ccc(OCC)cc1 (centres unmarked) [Compound 139],84%,87%,> 3000 mg/kg,–,–,–
CCCCC(CCC)C(=O)COS(=O)(=O)c1ccc(OCC)cc1 (centres unmarked) [Compound 140],67%,61%,> 3000 mg/kg,–,–,–
CCCCC(CCCC)C(=O)COS(=O)(=O)c1ccc(OCC)cc1 [Compound 141],68%,66%,> 3000 mg/kg,–,–,–
CCCCCC(C)C(=O)COS(=O)(=O)c1ccc(OCC)cc1 (centres unmarked) [Compound 146],85%,77%,> 4000 mg/kg,–,–,–
CCC(C)C(=O)COS(=O)(=O)c1c(C)cc(C)cc1C (centres unmarked) [Compound 147],98%,72%,> 3000 mg/kg,–,–,–
CCC(CC)C(=O)COS(=O)(=O)c1c(C)cc(C)cc1C [Compound 148],96%,80%,> 3000 mg/kg,–,–,–
CCCC(C)C(=O)COS(=O)(=O)c1c(C)cc(C)cc1C (centres unmarked) [Compound 150],84%,79%,> 3000 mg/kg,–,–,–
CCCC(CCC)C(=O)COS(=O)(=O)c1c(C)cc(C)cc1C [Compound 152],78%,69%,> 4000 mg/kg,–,–,–
CCC(CC)CC(=O)COS(=O)(=O)c1c(C)cc(C)cc1C [Compound 154],76%,70%,> 4000 mg/kg,–,–,–
CCCCC(C)C(=O)COS(=O)(=O)c1c(C)cc(C)cc1C (centres unmarked) [Compound 155],67%,71%,> 3000 mg/kg,–,–,–
CCCCC(CCC)C(=O)COS(=O)(=O)c1c(C)cc(C)cc1C (centres unmarked) [Compound 156],58%,62%,4000 mg/kg,–,–,–
CCCCC(CCCC)C(=O)COS(=O)(=O)c1c(C)cc(C)cc1C [Compound 157],67%,66%,> 4000 mg/kg,–,–,–
CCC(C)CCC(=O)COS(=O)(=O)c1c(C)cc(C)cc1C (centres unmarked) [Compound 159],49%,51%,> 4000 mg/kg,–,–,–
CCC(CC)CCC(=O)COS(=O)(=O)c1c(C)cc(C)cc1C [Compound 160],42%,40%,> 4000 mg/kg,–,–,–
Cc1cc(C)c(S(=O)(=O)OCC(=O)CCCC(C)C)c(C)c1 [Compound 161],51%,56%,> 3000 mg/kg,–,–,–
O=C(COS(=O)(=O)c1ccc(O)cc1)CC1CCCCC1 [Compound 169],–,–,–,–,–,800 nM
Cc1cc(C)c(S(=O)(=O)OCC(=O)C2CCCCC2)c(C)c1 [Compound 176],–,–,–,–,–,800 nM
